Consider 5 compounds from paper PMC9428891 (Frontiers in Pharmacology, 2022).

Data set [1] in a line: Viability of human neutrophils (WST-1 cytotoxicity test). It is filed as cell-based. The note with it: human neutrophils 1 × 10^7 cells/ml. The procedure: A cytotoxicity test was performed to determine the adverse effect of tested compounds on humans using neutrophil cells.
The absorbance is the mean of five experimental replicates.
The % viability of neutrophils was measured by the following formula: Percentage viability: […].

The test system of data set [2] is isolated rabbit jejunum, K+-induced contractions. Description: Calcium antagonistic activity: relaxation of high K+ (80 mM) contracted isolated rabbit jejunum. The note with it: mean ± SEM, n = 3. How it is done:
(§1) The spasmolytic activity of the inhibitors was evaluated using isolated contracting rabbit jejunum ([Rahman et al., 2019]). Rabbits used in the current study were provided by Aga Khan Medical University, Karachi, Pakistan, weighing between 1.5 and 2.0 kg. The standard operating protocol has already been defined ([Choudhary et al., 2005]).
(§2) Calcium antagonistic activity was also performed and confirmed the relaxation of 80 mM K^+ produced contraction.
Schiff bases were also evaluated at high K^+ (80 mM) contracted isolated rabbit jejunum preparations for their spasmolytic effect, which was relaxed by all compounds (Table 3). […] Schiff bases represent a class of compounds showing a wide range of bioactivities, such as antimicrobial and anticancer activities. Schiff base compounds are the products of primary amines and condensation of carbonyl compounds, which are extensively investigated owing to their wide range of biomedical applications ([Sztanke et al., 2013]). […] The antispasmodic and Ca^+2 antagonist activity of Schiff base compounds was first reported and could be linked to the azomethine bond.

Data set [3] has as its target T1, acetylcholinesterase (AChE) (Electrophorus electricus, UniProt O42275).
T1 construct: purchased Sigma Aldrich C3389-2KU
Kind of data set: biochemical. The note with it: triplicate. How it is done: AChE inhibitory activity was evaluated as described previously with few modifications using a microtiter plate reader (Molecular Device, CA, United States) ([Hasan et al., 2005]). Initially, 100 mM of sodium phosphate buffer (140 µl) pH 8, 0.25 mM DTNB (10 µl), 0.5 mM of synthetic compounds dissolved in 20 µl of ethanol and AChE (20 µl) were mixed and incubated for 15–20 min at room temperature in a microtiter plate. Finally, 10 µl of substrate ACh (0.4 mM) was added and incubated at room temperature for 4–6 min. The reaction started after the addition of ACh was hydrolyzed by AChE in the presence of DTNB; a yellow-colored 5-thio-2-nitrobenzoate anion was formed, which indicates the reaction completion and was read at a wavelength of 412 nm. All experiments were performed in triplicate and were analyzed using the SoftMax Pro6.3 program (Molecular Device, CA, United States).
Percentage inhibition was calculated by % inhibition = (O.D control-O.D test well) / O.D control)×100.
IC50 was determined at various concentrations, and EZ-Fit EK was employed to calculate the IC50 values of the test compounds (Perrella Scientific Inc., Amherst, MA, United States).
In the current study, electric eel AChE was used in the laboratory to perform an AChE inhibitory assay, but for computational analysis, we used hAChE (4EY6). Therefore, homology modeling was performed to check the similarity between the electric eel and hAChE.

The target of data set [4] is T1, acetylcholinesterase (AChE). Description: biochemical. The note with it: for K m app / V maxapp: in the presence of compound; for Ki: read-out: K i ± SEM; for K m: substrate ACh. On the set-up: V max / V maxapp: unit not given here. The procedure:
Enzyme-substrate (ES) is the complex of AChE and acetylcholine, while P represents the product formed after the reaction’s completion. Dissociation constant values were calculated through Dixon plots, their secondary replots, and the Lineweaver-Burk plot ([Khan et al., 2021]).
The values of K m, K i, and V max were determined from Dixon and Lineweaver-Burk plots using no linear regression equation.
GraFit software ([Khan et al., 2021]) was utilized for plotting graphs. The values of the correlation coefficients, slopes, intercepts, and their standard errors were determined by the linear regression equation using the same program.
During kinetic studies, the reaction rate was measured and the effect of different concentrations of a substrate on the enzyme was investigated. The kinetic study of enzymes helped to determine the catalytic mechanism of enzymes. […] The rate of reaction [V] was plotted against various substrate concentrations [S] at constant enzyme concentration. Initially, the rate of reaction [V] increases as substrate concentration increases, and at higher [S], the enzyme becomes saturated, and the rate of reaction reaches V max, which is referred to as the maximum rate of reaction.
The dissociation constant K i values were found using three different methods. Primarily, from the Lineweaver-Burk plot, which is the reciprocal rate of reaction (1/V) versus reciprocal of substrate concentration (1/S), helps to determine the effect of inhibitor on the values of K m and V max. Secondly, the Dixon plot is the plot between the reciprocal of initial velocities (1/V) versus different concentrations of the compound. Finally, from secondary replot, the slopes of each line versus various concentrations of all compounds. Kinetic studies were carried out to determine the inhibition type, which helps to specify the mechanism of action of enzyme inhibition and the inhibitor binding moieties.

Data set [5] concerns isolated rabbit jejunum, spontaneous contractions. Description: Spasmolytic activity on spontaneously contracting isolated rabbit jejunum. The note with it: mean ± SEM, n = 3. How it is done: as §1, §2

T1 sequence (O42275 24-633): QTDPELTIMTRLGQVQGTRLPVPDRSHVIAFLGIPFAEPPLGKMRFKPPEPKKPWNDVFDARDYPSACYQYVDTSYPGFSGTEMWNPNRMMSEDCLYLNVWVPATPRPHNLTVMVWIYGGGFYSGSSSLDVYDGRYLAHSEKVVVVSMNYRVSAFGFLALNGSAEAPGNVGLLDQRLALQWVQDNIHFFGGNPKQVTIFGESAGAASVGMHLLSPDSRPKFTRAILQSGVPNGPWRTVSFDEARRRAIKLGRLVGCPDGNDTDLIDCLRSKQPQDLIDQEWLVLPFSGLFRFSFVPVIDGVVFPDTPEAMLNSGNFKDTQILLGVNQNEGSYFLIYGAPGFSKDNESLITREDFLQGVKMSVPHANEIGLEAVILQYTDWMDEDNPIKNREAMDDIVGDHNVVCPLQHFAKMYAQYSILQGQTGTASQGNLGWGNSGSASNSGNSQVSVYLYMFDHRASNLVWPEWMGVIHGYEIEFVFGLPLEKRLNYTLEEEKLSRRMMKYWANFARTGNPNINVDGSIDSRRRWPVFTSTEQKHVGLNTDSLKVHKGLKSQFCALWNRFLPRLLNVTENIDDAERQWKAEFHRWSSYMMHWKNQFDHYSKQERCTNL

A word on the viability: it is a read-out of living cells in per cent, often relative to untreated cells. In general, IC50 refers to the midpoint of a concentration-inhibition curve. `CCSc1nc2ccccc2n1CC(=O)N/N=C/c1ccc(Cl)cc1Cl` [Compound 10]: the viability at 30 min, 491.014 µM in data set [1] (neutrophils isolated from human whole blood, Conc. 491.014 µM) stood at 90.1 ± 2.3%. In data set [2], the “Effective Dose (ED50), spasmolytic effect, High K+” value (shortened to “Effective Dose (ED50) … High K+”) is recorded as 1,620.347 ± 0.04 µM. This compound returned an IC50 in data set [3] of 51.23 ± 0.2 µM. In data set [4], the Type of inhibition entry was “Non-competitive”, the V max stood at 5.0, the K m app is 120 µM and the V maxapp was determined as 2.1. Also, in data set [4], the Ki worked out at 17 ± 1.3 µM and the K m came out at 120 µM.

As to `CCSc1nc2ccccc2n1CC(=O)N/N=C\c1ccc(OC)cc1OC` [Compound 11], in data set [1] (neutrophils isolated from human whole blood, Conc. 501.907 µM), the viability at 30 min, 501.907 µM came out at 98 ± 1%. Also, the “Effective Dose (ED50) … High K+” value in data set [2] worked out at 727.765 ± 0.09 µM. Besides, the IC50 in data set [3] came out at 37.64 ± 0.2 µM. In data set [4], the Type of inhibition result was “Non-competitive”, the V max worked out at 5.0, the K m app turned out to be 120 µM and the V maxapp was 2.6. Further, in data set [4], the Ki was found to be 14 ± 1.6 µM and the K m turned out to be 120 µM. In data set [5], the “Effective Dose (ED50), spasmolytic effect, Spontaneous” value (shortened to “Effective Dose (ED50) … Spontaneous”) was determined as 326.239 ± 0.01 µM.

In turn, `CCSc1nc2ccccc2n1CC(=O)N/N=C/c1cccc(O)c1O` [Compound 13] returned a viability at 30 min, 539.913 µM in data set [1] (neutrophils isolated from human whole blood, Conc. 539.913 µM) of 77.22 ± 0.5%. Moreover, the “Effective Dose (ED50) … High K+” value in data set [2] stood at 836.865 ± 0.05 µM. This compound yielded an IC50 in data set [3] of 50.58 ± 0.3 µM. Besides, in data set [4], the Type of inhibition entry was “Non-competitive”, the V max is 5.0, the K m app is 120 µM and the V maxapp was determined as 2.3. In addition, in data set [4], the Ki stood at 19 ± 1.7 µM and the K m turned out to be 120 µM. In data set [5], the “Effective Dose (ED50) … Spontaneous” value was found to be 458.926 ± 0.01 µM.

As for `CCSc1nc2ccccc2n1CC(=O)N/N=C/c1c2ccccc2cc2ccccc12` [Compound 14], the viability at 30 min, 456.058 µM in data set [1] (neutrophils isolated from human whole blood, Conc. 456.058 µM) came to 66.6 ± 4%. Moreover, the “Effective Dose (ED50) … High K+” value in data set [2] is 980.526 ± 0.05 µM. Also, the 50% inhibitory concentration (IC50) in data set [3] was 51.23 ± 0.2 µM. In data set [4], the Type of inhibition entry is “Non-competitive”, the K m app is 120 µM and the K m stood at 120 µM. Further, the “Effective Dose (ED50) … Spontaneous” value in data set [5] is listed as 592.876 ± 0.12 µM.

In data set [1] (Conc. 696.005 µM), `COc1ccc2c3c1O[C@H]1C[C@@H](O)C=C[C@@]31CCN(C)C2` [Galanthamine, reference compound] yielded a viability at 30 min, 696.005 µM of 96 ± 2%.
